This passage reports Ki results from patent US8044079B2, “Substituted oxindole derivatives, medicaments containing said derivatives and use thereof” (Abbott GmbH & Co. KG, priority 2005, dated 2011).

Some results are limits rather than exact numbers.

For the test, the target named is T1, human vasopressin V1b receptor (Homo sapiens, UniProt P47901).
T1 construct: expressed in transfected cells; host or cells: CHO-K1 (cell line hV1b_3H2_CHO), membrane preparation
T1 sequence (P47901 1-424): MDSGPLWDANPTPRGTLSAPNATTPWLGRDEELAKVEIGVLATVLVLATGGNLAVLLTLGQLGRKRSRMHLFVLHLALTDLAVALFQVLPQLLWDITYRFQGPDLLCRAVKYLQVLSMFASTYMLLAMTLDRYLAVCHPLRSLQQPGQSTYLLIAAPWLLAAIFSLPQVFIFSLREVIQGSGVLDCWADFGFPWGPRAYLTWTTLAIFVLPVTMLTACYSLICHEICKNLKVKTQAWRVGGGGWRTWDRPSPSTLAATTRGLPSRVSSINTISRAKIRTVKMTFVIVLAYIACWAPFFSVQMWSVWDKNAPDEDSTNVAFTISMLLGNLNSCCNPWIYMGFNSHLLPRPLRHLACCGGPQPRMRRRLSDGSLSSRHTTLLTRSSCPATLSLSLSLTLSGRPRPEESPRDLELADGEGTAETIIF
As to the kind of experiment: Vasopressin V1b receptor binding test. As to conditions: membranes of CHO-K1 cells with human V1b receptor, displacement of 1.5 nM 3H-AVP; for compounds with more than one stereogenic center the diastereomer with greater affinity. The essentials: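 Affinity constants (Ki) came from nonlinear regression of triplicate scintillation counts after filtration separated bound from free radioligand. Compounds competed at human V1b membranes for 60 min, room temperature, in pH 7.4 tris/MgCl2/BSA buffer with 2% DMSO; 1 μM AVP defined nonspecific binding.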

Regarding `COc1ccc(S(=O)(=O)N2C(=O)C(c3cc(CN4CCNCC4)ccc3OC)(N3CCC[C@H]3c3ncco3)c3cc(Cl)ccc32)cc1` (stereo partly drawn) [Example 11, 5-Chloro-1-(4-methoxybenzenesulfonyl)-3-(2-methoxy-5-piperazin-1-ylmethylphenyl)-3-((S)-2-oxazol-2-yl-pyrrolidin-1-yl)-1,3-dihydroindol-2-one], the inhibitory constant (Ki) was less than 10 nM.
On to `COc1ccc(CN2CCN(C)CC2)cc1C1(N2CCC[C@H]2c2ncco2)C(=O)N(S(=O)(=O)c2cccs2)c2ccc(Cl)cc21` (stereo partly drawn) [Example 171, 5-Chloro-3-[2-methoxy-5-(4-methylpiperazin-1-ylmethyl)phenyl]-3-((S)-2-oxazol-2-yl-pyrrolidin-1-yl)-1-(thiophene-2-sulfonyl)-1,3-dihydroindol-2-one], for which the Ki is 10 to 100 nM.
In the case of `COc1ccc(CN2CCN(C)CC2)cc1C1(N2CCC[C@H]2c2ncco2)C(=O)N(S(=O)(=O)c2ccc(OC(F)(F)F)cc2)c2ccc(Cl)cc21` (stereo partly drawn) [Example 141, 5-Chloro-3-[2-methoxy-5-(4-methylpiperazin-1-ylmethyl)phenyl]-3-((S)-2-oxazol-2-yl-pyrrolidin-1-yl)-1-(4-trifluoromethoxybenzenesulfonyl)-1,3-dihydroindol-2-one] it was 100 to 1000 nM.
The same measure for `COc1ccc(S(=O)(=O)N2C(=O)C(c3cc(CN4CCN(CCO)CC4)ccc3OC)(N3CCC[C@H]3c3ncco3)c3cc(Cl)c(Cl)cc32)cc1` (stereo partly drawn) [Example 107, 5,6-Dichloro-3-{5-[4-(2-hydroxyethyl)piperazin-1-ylmethyl]-2-methoxyphenyl}-1-(4-methoxybenzenesulfonyl)-3-((S)-2-oxazol-2-yl-pyrrolidin-1-yl)-1,3-dihydroindol-2-one]: 10 to 100 nM; for `CCNCc1ccc(C2(N3C[C@H](O)C[C@H]3c3ncco3)C(=O)N(S(=O)(=O)c3ccc(C#N)cc3)c3ccc(Cl)cc32)c(OC)c1` (stereo partly drawn) [Example 189, 5-Chloro-3-(4-ethylaminomethyl-2-methoxyphenyl)-3-((2S,4R)-4-hydroxy-2-oxazol-2-yl-pyrrolidin-1-yl)-1-(4-cyanobenzenesulfonyl)-1,3-dihydroindol-2 one]: 10 to 100 nM; for `COc1ccc(S(=O)(=O)N2C(=O)C(c3cc(CN4CCN(C(C)C)CC4)ccc3OC)(N3CCC[C@H]3c3ncco3)c3cc(Cl)c(Cl)cc32)cc1` (stereo partly drawn) [Example 104, 5,6-Dichloro-3-[5-(4-isopropylpiperazin-1-ylmethyl)-2-methoxyphenyl]-1-(4-methoxybenzenesulfonyl)-3-((S)-2-oxazol-2-yl-pyrrolidin-1-yl)-1,3-dihydroindol-2-one]: 10 to 100 nM.
For the compound `COc1ccc(S(=O)(=O)N2C(=O)C(c3cc(CN4CCNCC4)ccc3OC)(N3CCC[C@H]3c3ncco3)c3cc(Cl)c(F)cc32)cc1` (stereo partly drawn) [Example 200, 5-Chloro-6-fluoro-1-(4-methoxybenzenesulfonyl)-3-(2-methoxy-5-piperazin-1-ylmethylphenyl)-3-((S)-2-oxazol-2-yl-pyrrolidin-1-yl)-1,3-dihydroindol-2-one], the Ki was less than 10 nM.
The same measure for `CNCc1ccc(C2(N3CCC[C@H]3c3ncco3)C(=O)N(S(=O)(=O)c3ccc(OC)cc3)c3ccc(C#N)cc32)c(OC)c1` (stereo partly drawn) [Example 97, 5-Cyano-1-(4-methoxybenzenesulfonyl)-3-(2-methoxy-4-methylaminomethylphenyl)-3-((S)-2-oxazol-2-yl-pyrrolidin-1-yl)-1,3-dihydroindol-2-one]: 10 to 100 nM.
The same measure for `CCNCc1ccc(OC)c(C2(N3C[C@H](O)C[C@H]3c3ncco3)C(=O)N(S(=O)(=O)c3ccc(OC)cc3)c3ccc(C#N)cc32)c1` (stereo partly drawn) [Example 151, 5-Cyano-3-(5-ethylaminomethyl-2-methoxyphenyl)-3-((2S,4R)-4-hydroxy-2-oxazol-2-yl-pyrrolidin-1-yl)-1-(4-methoxybenzenesulfonyl)-1,3-dihydroindol-2-one]: less than 10 nM; for `COc1ccc(S(=O)(=O)N2C(=O)C(c3cc(CN(C)C)ccc3OC)(N3CCC[C@H]3c3ncco3)c3cc(Cl)ccc32)cc1` (stereo partly drawn) [Example 4, 5-Chloro-3-(5-dimethylaminomethyl-2-methoxyphenyl)-1-(4-methoxybenzenesulfonyl)-3-((S)-2-oxazol-2-yl-pyrrolidin-1-yl)-1,3-dihydroindol-2-one]: less than 10 nM.
The same measure for `COc1ccc(S(=O)(=O)N2C(=O)C(NCc3ncco3)(c3cc(CN(C)C)ccc3OC)c3cc(Cl)ccc32)cc1` (stereo not shown) [Example 108, 5-Chloro-3-(5-dimethylaminomethyl-2-methoxyphenyl)-1-(4-methoxybenzenesulfonyl)-3-[(oxazol-2-ylmethyl)amino]-1,3-dihydroindol-2-one]: 10 to 100 nM; for `CCNCc1ccc(F)c(C2(N3CCC[C@H]3c3ncco3)C(=O)N(S(=O)(=O)c3ccc(OC)cc3)c3ccc(Cl)cc32)c1` (stereo partly drawn) [Example 176, 5-Chloro-3-(5-ethylaminomethyl-2-fluorophenyl)-1-(4-methoxybenzenesulfonyl)-3-((S)-2-oxazol-2-yl-pyrrolidin-1-yl)-1,3-dihydroindol-2-one]: 10 to 100 nM.
In turn, `CCCNCc1ccc(OC)c(C2(N3CCC[C@H]3c3ncco3)C(=O)N(S(=O)(=O)c3ccc(OC)cc3)c3cc(Cl)ccc32)c1` (stereo partly drawn) [Example 32, 6-Chloro-1-(4-methoxybenzenesulfonyl)-3-(2-methoxy-5-propylaminomethylphenyl)-3-((S)-2-oxazol-2-yl-pyrrolidin-1-yl)-1,3-dihydroindol-2-one] returned a Ki of 100 to 1000 nM.
With `CCN(C)Cc1ccc(OC)c(C2(N3CCC[C@H]3c3ncco3)C(=O)N(S(=O)(=O)c3ccc(OC)cc3)c3cc(Cl)ccc32)c1` (stereo partly drawn) [Example 30, 6-Chloro-3-{5-[(ethylmethylamino)methyl]-2-methoxyphenyl}-1-(4-methoxybenzenesulfonyl)-3-((S)-2-oxazol-2-yl-pyrrolidin-1-yl)-1,3-dihydroindol-2-one], the Ki was in the range of 100 to 1000 nM.
In turn, `CCNCc1ccc(OC)c(C2(N3CCC[C@H]3c3ncco3)C(=O)N(S(=O)(=O)c3ccc(OC)cc3)c3ccc(Cl)cc32)c1` (stereo partly drawn) [Example 5, 5-Chloro-3-(5-ethylaminomethyl-2-methoxyphenyl)-1-(4-methoxybenzenesulfonyl)-3-((S)-2-oxazol-2-yl-pyrrolidin-1-yl)-1,3-dihydroindol-2-one] gave a Ki of less than 10 nM.
In the case of `COc1ccc(S(=O)(=O)N2C(=O)C(c3cc(CN4CCN(C)CC4)ccc3OC)(N3CCC[C@H]3c3ncon3)c3cc(Cl)ccc32)cc1` (stereo partly drawn) [Example 207, 5-Chloro-1-(4-methoxybenzenesulfonyl)-3-[2-methoxy-5-(4-methylpiperazin-1-ylmethyl)phenyl]-3-((S)-2-[1,2,4]oxadiazol-3-yl-pyrrolidin-1-yl)-1,3-dihydroindol-2-one] it was less than 10 nM; in that of `COc1ccc(S(=O)(=O)N2C(=O)C(c3cc(CNC(C)C)ccc3OC)(N3CCC[C@H]3c3ncco3)c3cc(Cl)ccc32)cc1` (stereo partly drawn) [Example 8, 5-Chloro-3-[5-(isopropylaminomethyl)-2-methoxyphenyl]-1-(4-methoxybenzenesulfonyl)-3-((S)-2-oxazol-2-yl-pyrrolidin-1-yl)-1,3-dihydroindol-2-one], less than 10 nM.
The same measure for `COc1ccc(S(=O)(=O)N2C(=O)C(c3ccc(CN4CCCCC4)cc3OC)(N3CCC[C@H]3c3ncco3)c3cc(Cl)ccc32)cc1` (stereo partly drawn) [Example 26, 5-Chloro-1-(4-methoxybenzenesulfonyl)-3-(2-methoxy-4-piperidin-1-ylmethylphenyl)-3-((S)-2-oxazol-2-yl-pyrrolidin-1-yl)-1,3-dihydroindol-2-one]: less than 10 nM.
The same measure for `COc1ccc(S(=O)(=O)N2C(=O)C(c3cc(CN(C)C(C)C)ccc3OC)(N3CCC[C@H]3c3ncco3)c3cc(C#N)ccc32)cc1` (stereo partly drawn) [Example 53, 5-Cyano-3-{5-[(isopropylmethylamino)methyl]-2-methoxyphenyl}-1-(4-methoxybenzenesulfonyl)-3-((S)-2-oxazol-2-yl-pyrrolidin-1-yl)-1,3-dihydroindol-2-one]: 10 to 100 nM; for `COc1ccc(S(=O)(=O)N2C(=O)C(c3cc(CN(C)C)ccc3OC)(N3CCC[C@H]3c3ncon3)c3cc(Cl)ccc32)cc1` (stereo partly drawn) [Example 209, 5-Chloro-3-(5-dimethylaminomethyl-2-methoxyphenyl)-1-(4-methoxybenzenesulfonyl)-3-((S)-2-[1,2,4]oxadiazol-3-yl-pyrrolidin-1-yl)-1,3-dihydroindol-2-one]: less than 10 nM.
For `CNCc1ccc(OC)c(C2(NCc3ncco3)C(=O)N(S(=O)(=O)c3ccc(OC)cc3)c3ccc(Cl)cc32)c1` (stereo not shown) [Example 129, 5-Chloro-1-(4-methoxybenzenesulfonyl)-3-(2-methoxy-5-methylaminomethylphenyl)-3-[(oxazol-2-ylmethyl)amino]-1,3-dihydroindol-2-one], the Ki is 10 to 100 nM.
The same measure for `COc1ccc(S(=O)(=O)N2C(=O)C(c3ccc(CN(C)C)cc3OC)(N3C[C@H](O)C[C@H]3c3ncco3)c3cc(C#N)ccc32)cc1` (stereo partly drawn) [Example 172, 5-Cyano-3-(4-dimethylaminomethyl-2-methoxyphenyl)-3-((2S,4R)-4-hydroxy-2-oxazol-2-yl-pyrrolidin-1-yl)-1-(4-methoxybenzenesulfonyl)-1,3-dihydroindol-2-one]: 10 to 100 nM.

For orientation: Ki means the equilibrium dissociation constant of an inhibitor or competing ligand from its target. Low values mean higher affinity, high ones lower affinity.
